Tests used:
Brd2(1)*(Leu110-Ala) = Brd2(1)*(Leu110-Ala) (Homo sapiens, UniProt P25440, L110A); assay: DSF thermal shift; format: binding; set-up: Plasmids of the eight single BET bromodomain constructs Brd2(1), Brd2(2), Brd3(1), Brd3(2); His6 (N); made in house; host or cells: E. coli BL21(DE3); settings: mutant
Protocol: (§1) DSF assays were performed on a LightCycler®480 from Roche or a Mx3005P Real Time PCR machine from Stratagene. […] SYPRO®Orange from Invitrogen Molecular Probes® was used as a reporter dye to monitor the denaturing process of the proteins. Samples were assayed on a 96-well plate with final protein concentrations of 2 μM for the LightCycler®480 and 6 μM for Mx3005P. Compounds were added at a final concentration of 10 μM for the LightCycler®480 and 30 μM for Mx3005P, while the tetra acetylated histone peptide was added to a final concentration of 100 μM and 300 μM respectively. […] The temperature was raised with a step of 0.6° C. per minute from 37° C. to 95° C. with the LightCycler®480 collecting 39 measurements per ° C., and 1° C. per minute from 25° C. to 95° C. with Mx3005P, collecting fluorescence readings at the end of each interval. Each sample was run in triplicates.
(§2) Collected data was analysed by IGOR Pro 6, a scientific software tool from Wave Metrics, Inc. Analysis was done following the recommendations of Niesen et al.. Fluorescence intensity was plotted as a function of temperature, generating a sigmoidal curve described by a two-state transition from folded to unfolded protein. Curves were fitted by the following sigmoidal equation: […]
(§3) A1 and A2 are the values of minimum and maximum intensities, respectively, x0 is the inflection point and dx is the rate. Fitted curves were differentiated in IGOR Pro 6 and the maximum of the first derivative was identified using the same program. These values correspond to the inflection points of the transition curves and thus to the melting temperatures of the proteins (Tm).

Brd2(2) Leu383-Ile = Brd2(2) Leu383-Ile (Homo sapiens, UniProt P25440, L383I); assay: DSF thermal shift; format: binding; set-up: Plasmids of the eight single BET bromodomain constructs Brd2(1), Brd2(2), Brd3(1), Brd3(2); His6 (N); made in house; host or cells: E. coli BL21(DE3); settings: mutant
Sequence of Brd2(2) Leu383-Ile (P25440 344-453 L383I limits assumed): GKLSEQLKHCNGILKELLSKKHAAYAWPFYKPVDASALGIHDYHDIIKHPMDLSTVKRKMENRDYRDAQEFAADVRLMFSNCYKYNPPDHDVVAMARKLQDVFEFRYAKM
Protocol: as §1, §2, §3

Brd2(1) Leu110-Ile = Brd2(1) Leu110-Ile (Homo sapiens, UniProt P25440, L110I); assay: DSF thermal shift; format: binding; set-up: Plasmids of the eight single BET bromodomain constructs Brd2(1), Brd2(2), Brd3(1), Brd3(2); His6 (N); made in house; host or cells: E. coli BL21(DE3); settings: mutant
Sequence of Brd2(1) Leu110-Ile (P25440 74-180 L110I limits assumed): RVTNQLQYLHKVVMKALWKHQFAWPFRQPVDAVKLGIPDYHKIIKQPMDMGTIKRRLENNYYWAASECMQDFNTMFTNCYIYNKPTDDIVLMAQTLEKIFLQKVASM
Protocol: as §1, §2, §3

Brd2(2)*(Leu383-Ala) = Brd2(2)*(Leu383-Ala) (Homo sapiens, UniProt P25440, L383A); assay: DSF thermal shift; format: binding; set-up: Plasmids of the eight single BET bromodomain constructs Brd2(1), Brd2(2), Brd3(1), Brd3(2); His6 (N); made in house; host or cells: E. coli BL21(DE3); settings: mutant
Sequence of Brd2(2)*(Leu383-Ala) (P25440 344-453 L383A limits assumed): as the sequence (P25440 344-453 L383I limits assumed) above, with I40A counted along it
Protocol: as §1, §2, §3

Brd2(2) = target: T1, Brd2(2) (Homo sapiens, UniProt P25440); assay: DSF thermal shift; format: binding; settings: wild type
T1 construct: Plasmids of the eight single BET bromodomain constructs Brd2(1), Brd2(2), Brd3(1), Brd3(2); His6 (N); made in house; host or cells: E. coli BL21(DE3)
T1 sequence (P25440 344-453 limits assumed): as the sequence (P25440 344-453 L383I limits assumed) above, with I40L counted along it
Protocol: as §1, §2, §3

Brd2(1) = target: T2, Brd2(1) (Homo sapiens, UniProt P25440); assay: DSF thermal shift; format: binding; settings: wild type
T2 construct: Plasmids of the eight single BET bromodomain constructs Brd2(1), Brd2(2), Brd3(1), Brd3(2); His6 (N); made in house; host or cells: E. coli BL21(DE3)
T2 sequence (P25440 74-180 limits assumed): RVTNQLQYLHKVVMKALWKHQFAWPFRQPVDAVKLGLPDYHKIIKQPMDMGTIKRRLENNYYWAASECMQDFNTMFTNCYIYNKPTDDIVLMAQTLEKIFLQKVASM
Protocol: as §1, §2, §3

Brd4(2) = target: T3, Brd4(2) (Homo sapiens, UniProt O60885); assay: DSF thermal shift; format: binding; settings: wild type
T3 construct: Plasmids of the eight single BET bromodomain constructs Brd2(1), Brd2(2), Brd3(1), Brd3(2), Brd4(1), Brd4(2), Brdt(1) and Brdt(2); His6 (N); made in house; host or cells: E. coli BL21(DE3)
Protocol: as §1, §2, §3

Brd4(1) = target: T4, Brd4(1) (Homo sapiens, UniProt O60885); assay: DSF thermal shift; format: binding; settings: wild type
T4 construct: Plasmids of the eight single BET bromodomain constructs Brd2(1), Brd2(2), Brd3(1), Brd3(2), Brd4(1), Brd4(2), Brdt(1) and Brdt(2); His6 (N); made in house; host or cells: E. coli BL21(DE3)
Protocol: as §1, §2, §3

[1] = system: Brd2(1) and (2) wild type and leucine to alanine, valine and isoleucine mutants; assay: DSF thermal stabilization (FIG. 15); format: binding, human; settings: result in words
Protocol: as §1, §2, §3

Brd2(2)*(Met438-Leu) = target: T5, Brd2(2)*(Met438-Leu) (Homo sapiens, UniProt P25440, M438L); assay: DSF thermal shift; format: binding; settings: mutant
T5 construct: Plasmids of the eight single BET bromodomain constructs Brd2(1), Brd2(2), Brd3(1), Brd3(2); His6 (N); made in house; host or cells: E. coli BL21(DE3)
T5 sequence (P25440 344-453 M438L limits assumed): as the sequence (P25440 344-453 L383I limits assumed) above, with I40L, M95L counted along it
Protocol: (§4) DSF assays were performed on a LightCycler®480 from Roche or a Mx3005P Real Time PCR machine from Stratagene. Prior to DSF assays, frozen proteins were buffer exchanged using Vivaspin®6 concentrators with a 10 kDa cutoff on a Centrifuge 5430 from Eppendorf at a speed of 6000×g to remove glycerol and to buffer the proteins in 20 mM HEPES pH 7.5 at 25° C. and 100 mM NaCl. SYPRO®Orange from Invitrogen Molecular Probes® was used as a reporter dye to monitor the denaturing process of the proteins. Samples were assayed on a 96-well plate with final protein concentrations of 2 μM for the LightCycler®480 and 6 μM for Mx3005P. Compounds were added at a final concentration of 10 μM for the LightCycler®480 and 30 μM for Mx3005P, while the tetra acetylated histone peptide was added to a final concentration of 100 μM and 300 μM respectively. […] The temperature was raised with a step of 0.6° C. per minute from 37° C. to 95° C. with the LightCycler®480 collecting 39 measurements per ° C., and 1° C. per minute from 25° C. to 95° C. with Mx3005P, collecting fluorescence readings at the end of each interval. Each sample was run in triplicates.
as §2, §3

Brd2(2)*(Met438-Ala) = target: T6, Brd2(2)*(Met438-Ala) (Homo sapiens, UniProt P25440, M438A); assay: DSF thermal shift; format: binding; settings: mutant
T6 construct: Plasmids of the eight single BET bromodomain constructs Brd2(1), Brd2(2), Brd3(1), Brd3(2); His6 (N); made in house; host or cells: E. coli BL21(DE3)
T6 sequence (P25440 344-453 M438A limits assumed): as the sequence (P25440 344-453 L383I limits assumed) above, with I40L, M95A counted along it
Protocol: as §4, §2, §3

Brd2(1)*(Met165-Leu) = target: T7, Brd2(1)*(Met165-Leu) (Homo sapiens, UniProt P25440, M165L); assay: DSF thermal shift; format: binding; settings: mutant
T7 construct: Plasmids of the eight single BET bromodomain constructs Brd2(1), Brd2(2), Brd3(1), Brd3(2); His6 (N); made in house; host or cells: E. coli BL21(DE3)
T7 sequence (P25440 74-180 M165L limits assumed): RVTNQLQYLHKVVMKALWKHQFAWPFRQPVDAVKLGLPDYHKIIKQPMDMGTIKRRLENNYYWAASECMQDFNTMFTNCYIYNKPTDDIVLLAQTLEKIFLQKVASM
Protocol: as §4, §2, §3

Solubility observations = settings: observation in words
Brd2(1)*(Met165Ala) = Brd2(1)*(Met165Ala) (Homo sapiens, UniProt P25440, M165A); assay: DSF thermal shift; format: binding; set-up: Plasmids of the eight single BET bromodomain constructs Brd2(1), Brd2(2), Brd3(1), Brd3(2); His6 (N); made in house; host or cells: E. coli BL21(DE3); settings: mutant
Sequence of Brd2(1)*(Met165Ala) (P25440 74-180 M165A limits assumed): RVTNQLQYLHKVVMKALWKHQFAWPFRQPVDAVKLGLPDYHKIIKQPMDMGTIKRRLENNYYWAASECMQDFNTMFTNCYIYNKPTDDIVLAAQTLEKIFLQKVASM
Protocol: as §4, §2, §3

Sequence of Brd2(1)*(Leu110-Ala) (P25440 74-180 L110A limits assumed): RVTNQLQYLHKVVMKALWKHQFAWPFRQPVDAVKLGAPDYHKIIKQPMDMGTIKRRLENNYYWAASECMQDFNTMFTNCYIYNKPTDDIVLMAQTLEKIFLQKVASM

Row | Compound | Thermal stabilisation brd2(1)L110A (Brd2(1)*(Leu110-Ala)) | ΔTm Brd2(1)*(Leu110-Ala) (Brd2(1)*(Leu110-Ala)) | Thermal stabilisation brd2(2)V383I (Table 1); Brd2(2) Leu383-Ile (text) (Brd2(2) Leu383-Ile) | ΔTm Brd2(2)*(Leu383-Ile) (Brd2(2) Leu383-Ile) | Thermal stabilisation brd2(1)L110I (Brd2(1) Leu110-Ile) | ΔTm Brd2(1)*(Leu110-Ile) (Brd2(1) Leu110-Ile) | Thermal stabilisation brd2(2)L383A (Brd2(2)*(Leu383-Ala)) | ΔTm Brd2(2)*(Leu383-Ala) (Brd2(2)*(Leu383-Ala)) | Thermal stabilisation brd2(2) (Brd2(2)) | ΔTm Brd2(2) (Brd2(2)) | Thermal stabilisation brd2(1) (Brd2(1)) | ΔTm Brd2(1) (Brd2(1)) | ΔTm Brd4(2) (Brd4(2)) | ΔTm Brd4(1) (Brd4(1)) | Thermal stabilization of Brd2 mutants versus wild types (FIG. 15) [1] | ΔTm Brd2(2)*(Met165-Leu) (Brd2(2)*(Met438-Leu)) | ΔTm Brd2(2)*(Met165-Ala) (Brd2(2)*(Met438-Ala)) | ΔTm Brd2(1)*(Met165-Leu) (Brd2(1)*(Met165-Leu)) | Solubility (Solubility observations) | ΔTm Brd2(1)*(Met165-Ala) (Brd2(1)*(Met165Ala))
1 | COC(=O)CC1(C)N=C(c2ccc(Cl)cc2)c2cc(OC)ccc2-n2c(C)nnc21 (racemic) [Compound 5, (+−)-methyl 2-(6-(4-chlorophenyl)-8-methoxy-1,4-dimethyl-4H-benzo[f][1,2,4]triazolo[4,3-a][1,4]diazepin-4-yl)acetate] | 2.9 ± 0.4 °C | 2.9 ± 0.4 K | 6.8 ± 0.1 °C | 6.8 ± 0.1 K | 3.3 ± 0.4 °C | 3.3 ± 0.3 K | 6.6 ± 0.4 °C | 6.6 ± 0.4 K | 5.3 ± 0.3 °C | 5.3 ± 0.3 K | 2.2 ± 0.3 °C | 2.2 ± 0.3 K | – | – | – | – | – | – | – | –
2 | COC(=O)[C@@H](C)[C@@H]1N=C(c2ccc(Cl)cc2)c2cc(OC)ccc2-n2c(C)nnc21 (racemic) [Compound 6, (+−)-methyl (S)-2-((S)-6-(4-chlorophenyl)-8-methoxy-1-methyl-4H-benzo[f][1,2,4]triazolo[4,3-a][1,4]diazepin-4-yl)propanoate] | 1.6 ± 0.2 °C | 1.6 ± 0.2 K | 0.3 ± 0.2 °C | 0.3 ± 0.2 K | 0.0 ± 0.5 °C | 0.0 ± 0.5 K | 0.8 ± 0.6 °C | 0.8 ± 0.6 K | 0.2 ± 0.2 °C | 0.2 ± 0.2 K | −0.3 ± 0.2 °C | −0.3 ± 0.2 K | – | – | – | – | – | – | – | –
3 | CC[C@H](C(=O)OC)[C@@H]1N=C(c2ccc(Cl)cc2)c2cc(OC)ccc2-n2c(C)nnc21 (racemic) [Compound 14, (+−)-methyl (S)-2-((S)-6-(4-chlorophenyl)-8-methoxy-1-methyl-4H-benzo[f][1,2,4]triazolo[4,3-a][1,4]diazepin-4-yl)butanoate] | – | 1.8 ± 0.4 K | – | 0.9 ± 0.3 K | – | 0.5 ± 0.0 K | – | 2.4 ± 0.6 K | – | 0.9 ± 0.4 K | – | 1.0 ± 0.3 K | 0.1 ± 0.1 K | 0.5 ± 0.1 K | – | – | – | – | – | –
4 | COC(=O)CC1N=C(c2ccc(Cl)cc2)c2cc(OC)ccc2-n2c(C)nnc21 (racemic) [I-BET-OMe, (+−)-methyl 2-(6-(4-chlorophenyl)-8-methoxy-1-methyl-4H-benzo[f][1,2,4]triazolo[4,3-a][1,4]diazepin-4-yl)acetate, reference compound] | – | – | – | – | – | – | – | – | – | – | – | – | – | – | no selective stabilization of the mutant proteins | – | – | – | – | –
5 | COc1ccc(-c2ccc(S(=O)(=O)Nc3ccc4c(c3)CN(C)C(=O)N4)cc2)cc1 [Compound 50, 4′-methoxy-N-(3-methyl-2-oxo-1,2,3,4-tetrahydroquinazolin-6-yl)-[1,1′-biphenyl]-4-sulfonamide] | – | – | – | – | – | – | – | – | – | 0.7 ± 0.2 K | – | – | – | – | – | 3.8 ± 0.2 K | 4.1 ± 0.1 K | 1.7 ± 0.1 K | solubility of the compound decreased | 5.3 ± 0.3 K
6 | Cc1cccc(S(=O)(=O)Nc2ccc3c(c2)CN(C)C(=O)N3)c1 [Compound 53, 3-methyl-N-(3-methyl-2-oxo-1,2,3,4-tetrahydroquinazolin-6-yl)benzenesulfonamide] | – | – | – | – | – | – | – | – | – | 0.7 ± 0.1 K | – | 0.0 ± 0.3 K | – | – | – | 0.0 ± 0.0 K | 0.0 ± 0.1 K | 0.0 ± 0.1 K | low solubility | 0.0 ± 0.1 K
